What all share (format): cell-based
For experiment [1], the system named is HT29 cells. In words: Necroptosis assay in HT29 cells (TNF-α, Smac mimetic, z-VAD; cell viability). Particulars: Homo sapiens, HT-29; TNF-α (40 ng/mL), Smacmimetic (100 nM), z-VAD (20 μM), 48 hours. How it is done:
Human colon cancer HT29 cells were used in a necroptosis assay. For this assay, HT29 cells were added to 96-well plates and then were pre-treated with 10 μM of the test compound for one hour. Then the cells were treated with TNF-α (40 ng/mL), Smacmimetic (100 nM) and z-VAD (20 μM) for 48 hours, and the viability of cells was quantified. DMSO pretreatment group was used as negative controls, Nec-1 pretreatment group was used as positive controls.
In Table 2, (1) “ND” indicates “not detected;” (2) Explanation for inhibition %: Taking Compound B14 as an example, its inhibition % was 30% (50 nM). It means that the when Compound B14 at a concentration of 50 nM was used in the HT29 Cell Assay, the necrosis of cells were inhibited at 30%.

Another experiment relates to L929 cells. In words: Necroptosis assay in L929 cells (TNF-α, z-VAD; cell viability by ATP levels). Particulars: Mus musculus, TNF-α (40 ng/mL), z-VAD (20 μM), 48 hours. The method, then: […] Then the cells were treated with TNF-α (40 ng/mL) and z-VAD (20 μM) for 48 hours, and the viability of cells was quantified by detecting adenosine triphosphate (ATP) levels. DMSO pretreatment group was used as negative controls, Nec-1 pretreatment group was used as positive controls.

Experiment [2] has as its system HT29 cells. In words: Necroptosis assay in HT29 cells (TNF-α, Smac mimetic, z-VAD; cell viability). Particulars: Homo sapiens, HT-29; inhibition of necrosis in HT29 cells, compound at 50 nM.

Molecules are shown by their SMILES. pIC50: −log10 of the molar value. Where a name gives a salt, the structure may show the parent alone.

The values that follow come from patent publication US11339177B2, “Heteroaryl compounds as inhibitors of necrosis, composition and method using the same” (ACCRO BIOSCIENCE INC., priority 2017, dated 2022).

By pIC50 is commonly meant −log10 of the IC50, conventionally taken in molar units. Low values mean a high IC50, high ones a low IC50. Take `Nc1nc2ccc(-c3cnc4c(c3)N(C(=O)OC3CCCCC3)CCO4)cc2s1` [Compound B1]: the pIC50 in the experiment on HT29 cells [1] was 7.96; in the experiment with L929 cells it was 8.44. On to `O=C(Nc1nc2ccc(-c3cnc4c(c3)N(C(=O)OC3CCCCC3)CCO4)cc2s1)C1CC1` [Compound B3], for which the values for the pIC50 in the experiment on HT29 cells [1] and with L929 cells were 9.30 and 9.23, respectively. Taken in the same sequence, the figures for `CC(=O)Nc1nc2ccc(-c3cnc4c(c3)N(C(=O)OC3CCCCC3)CCO4)cn2n1` [Compound B7] were 7.34 and 7.70.

On to `CC(=O)Nc1cn2cc(-c3cnc4c(c3)N(C(=O)OC3CCCCC3)CCO4)ccc2n1` [Compound B8], for which the figures for the pIC50 with HT29 cells [1] and in the experiment with L929 cells were 9.00 and 8.82, respectively. As to `O=C(Nc1cn2cc(-c3cnc4c(c3)N(C(=O)OC3CCCCC3)CCO4)ccc2n1)C1CC1` [Compound B9], the results for the pIC50 in the experiment with HT29 cells [1] and with L929 cells were 9.30 and 9.70, respectively.

Consider `Nc1cn2nc(-c3cnc4c(c3)N(C(=O)OC3CCCCC3)CCO4)ccc2n1` [Compound B11], for which the pIC50 with HT29 cells [1] was 6.30; with L929 cells, 8.05. In the same order, the values of `O=C(Nc1cn2nc(-c3cnc4c(c3)N(C(=O)OC3CCCCC3)CCO4)ccc2n1)C1CC1` [Compound B13] are 8.89 and 9.15. Broadly, the inhibition is the share of the control response that was lost under treatment. Low values mean little suppression, high ones strong suppression. With `Nc1nc2ccc(-c3cnc4c(c3)N(C(=O)OC3CCOCC3)CCO4)cc2s1` [Compound B14, tetrahydro-2H-pyran-4-yl7-(2-aminobenzo[d]thiazol-6-yl)-2,3-dihydro-1H-pyrido[2,3-b][1,4]oxazine-1-carboxylate hydrochloride], in the experiment on L929 cells, the pIC50 was 7.90. The same molecule had an inhibition at 0.05 µM with HT29 cells [2] of 30%. As to `CC(=O)Nc1nc2ccc(-c3cnc4c(c3)N(C(=O)OC3CCOCC3)CCO4)cc2s1` [Compound B15], the figures for the pIC50 in the experiment on HT29 cells [1] and in the experiment with L929 cells were 7.70 and 8.06, respectively. In the same order, the values of `O=C(Nc1nc2ccc(-c3cnc4c(c3)N(C(=O)OC3CCOCC3)CCO4)cc2s1)C1CC1` [Compound B16] are 8.40 and 8.82. `CC(=O)Nc1cn2cc(-c3cnc4c(c3)N(C(=O)OC3CCOCC3)CCO4)ccc2n1` [Compound B18] gave an inhibition at 0.05 µM with HT29 cells [2] of 10%.

As to `O=C(Nc1cn2cc(-c3cnc4c(c3)N(C(=O)OC3CCOCC3)CCO4)ccc2n1)C1CC1` [Compound B19], the pIC50 was 7.70 with HT29 cells [1] and 8.00 in the experiment with L929 cells.

In turn, `CC(=O)Nc1cn2nc(-c3cnc4c(c3)N(C(=O)OC3CCOCC3)CCO4)ccc2n1` [Compound B20] had an inhibition at 0.05 µM in the experiment with HT29 cells [2] of 20%. On to `O=C(Nc1cn2nc(-c3cnc4c(c3)N(C(=O)OC3CCOCC3)CCO4)ccc2n1)C1CC1` [Compound B21], for which the negative logarithm of the IC50 (pIC50) in the experiment with HT29 cells [1] was 7.30; in the experiment with L929 cells it was 7.51. Turning to `CC(C)(C)OC(=O)Nc1cn2nc(-c3cnc4c(c3)N(C(=O)OC3CCOCC3)CCO4)ccc2n1` [Compound B22], the pIC50 was 6.94 in the experiment on HT29 cells [1] and 7.10 with L929 cells. Testing at 0.05 µM in the experiment with HT29 cells [2] gave an inhibition of 25%. In the same order, the values of `Nc1cn2nc(-c3cnc4c(c3)N(C(=O)OC3CCOCC3)CCO4)ccc2n1` [Compound B23] are 6.83, 7.94 and 10%. As for `CC(=O)Nc1nc2ccc(-c3cnc4c(c3)N(C(=O)OC(C)C3CC3)CCO4)cc2s1` (centres unmarked) [Compound B24], the pIC50 with HT29 cells [1] was 7.74; in the experiment with L929 cells, 8.30. Consider `CC(=O)Nc1nc2ccc(-c3cnc4c(c3)N(C(=O)OC3CCCOC3)CCO4)cc2s1` (centres unmarked) [Compound B25], for which the negative logarithm of the IC50 (pIC50) is 7.77 with HT29 cells [1] and 8.00 in the experiment with L929 cells. As to `O=C(Nc1nc2ccc(-c3cnc4c(c3)N(C(=O)OC3CCOCC3)CCO4)nc2s1)C1CC1` [Compound B35], the negative logarithm of the IC50 (pIC50) is 7.44 with HT29 cells [1] and 9.00 with L929 cells.

Regarding `CC(=O)Nc1nc2ccc(-c3cnc4c(c3)N(C(=O)OC3CCCCC3)C[C@@H](C)O4)cc2s1` [Compound B37, Cyclohexyl-(R)-7-(2-acetamidobenzo[d]thiazol-6-yl)-3-methyl-2,3-dihydro-1H-pyrido[2,3-b][1,4]oxazine-1-carboxylate], the negative-log IC50 (pIC50) with HT29 cells [1] was 7.49; with L929 cells, 7.52. In the same order, the values of `CC(=O)Nc1nc2ccc(-c3cnc4c(c3)N(C(=O)OC3CCCCC3)C[C@H](C)O4)cc2s1` [Compound B38] are 5.46 and 7.82. `CC(=O)Nc1cn2nc(-c3cnc4c(c3)N(C(=O)OC3CCOCC3)CC4)ccc2n1` [Compound B57]: the pIC50 in the experiment on HT29 cells [1] was 6.22; in the experiment with L929 cells, 7.05. In the same order, the values of `CNC(=O)Nc1nc2ccc(-c3cnc4c(c3)N(C(=O)OC3CCOCC3)CC4)cc2s1` [Compound B60, Tetrahydro-2H-pyran-4-yl6-(2-(3-methylureido)benzo[d]thiazol-6-yl)-2,3-dihydro-1H-pyrrolo[3,2-b]pyridine-1-carboxylate] are 8.89 and 8.55. Taken in the same sequence, the figures for `O=C(Nc1nc2ccc(-c3cnc4c(c3)N(C(=O)CC3CCOCC3)CC4)nc2s1)C1CC1` [Compound B63] were 7.60 and 8.07. In the same order, the values of `CC(C)OC(=O)N1CCc2ncc(-c3ccc4nc(NC(=O)C5CC5)sc4c3)cc21` [Compound B65] are 8.49 and 8.35. As to `O=C(Nc1nc2ccc(-c3cnc4c(c3)N(C(=O)OCC3CC3)CC4)cc2s1)C1CC1` [Compound B66], the pIC50 is 9.41 with HT29 cells [1] and 9.14 in the experiment on L929 cells. Consider `CN1CCC(OC(=O)N2CCc3ncc(-c4ccc5nc(NC(=O)C6CC6)sc5c4)cc32)CC1` [Compound B68, 1-methylpiperidin-4-yl-6-(2-(cyclopropanecarboxamido)benzo[d]thiazol-6-yl)-2,3-dihydro-1H-pyrrolo[3,2-b]pyridine-1-carboxylate], for which the pIC50 in the experiment on HT29 cells [1] is 7.52; in the experiment on L929 cells, 7.55. Taken in the same sequence, the figures for `O=C(Nc1nc2ccc(-c3cnc4c(c3)N(C(=O)OC3CCS(=O)(=O)CC3)CC4)cc2s1)C1CC1` [Compound B69, 1,1-dioxidotetrahydro-2H-thiopyran-4-yl6-(2-(cyclopropanecarboxamido)benzo[d]thiazol-6-yl)-2,3-dihydro-1H-pyrrolo[3,2-b]pyridine-1-carboxylate] were 8.32 and 7.82. Consider `O=C(Nc1nc2ccc(-c3cnc4c(c3)N(C(=O)OC3CCC(F)(F)CC3)CC4)cc2s1)C1CC1` [Compound B70], for which the pIC50 is 8.92 with HT29 cells [1] and 8.89 with L929 cells. In the case of `CC(=O)Nc1ccc2cc(-c3cnc4c(c3)N(C(=O)OC3CCCCC3)CCO4)ccc2n1` [Compound B80, Cyclohexyl7-(2-acetamidoquinolin-6-yl)-2,3-dihydro-1H-pyrido[2,3-b][1,4]oxazine-1-carboxylate], the negative logarithm of the IC50 (pIC50) in the experiment with HT29 cells [1] was 6.00.
